According to the supplement of paper PMC10883282:

Legend:
Experiment in all cases: relative viability vs DMSO control (72 h) (fraction); higher = more viable cells
SW1353 = system: SW1353
Summary of the method: (§1)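 Sarcoma cell lines were seeded in 384-well plates at densities set to reach 80–90% confluence. After 24 h, 2.5 µl of serially diluted compound was added (source plates 10 mM to 0.0002 mM), and plates were held 72 h at 37 °C, 5% CO2, with 0.1% DMSO vehicle and a 5 µM positive control. Relative viability came from ATPLite readings as percent growth, averaged over up to triplicate wells. Data were rescaled so full viability equals 1 and none equals 0.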

KHOS-NP = system: KHOS-NP
Summary of the method: as §1

A204 = system: A204
Summary of the method: as §1

HT1080 = system: HT1080
Summary of the method: as §1

SK-ES-1 = system: SK-ES-1
Summary of the method: as §1

SW982 = system: SW982
Summary of the method: as §1

KHOS-240S = system: KHOS-240S
Summary of the method: as §1

RD-ES = system: RD-ES
Summary of the method: as §1

SW684 = system: SW684
Summary of the method: as §1

SYO-1 = system: SYO-1
Summary of the method: as §1

G401 = system: G401
Summary of the method: as §1

SW872 = system: SW872
Summary of the method: as §1

C1=N/C2=N/c3ccc(OCCN4CCCC4)c(c3)COC/C=C/COCc3cccc(c3)C(=C1)N2 [Pacritinib]
Settings	relative viability
A204, 0.00017 µM	1.07
A204, 0.00051 µM	1.05
A204, 0.00152 µM	1.07
A204, 0.00457 µM	1.1
A204, 0.01372 µM	1.07
A204, 0.04115 µM	1.02
A204, 0.1235 µM	0.918
A204, 0.3704 µM	0.654
A204, 1.111 µM	0.398
A204, 3.333 µM	0.0367
A204, 10 µM	0.0523
G401, 0.00017 µM	1.05
G401, 0.00051 µM	1.09
G401, 0.00152 µM	1.02
G401, 0.00457 µM	1.06
G401, 0.01372 µM	1.03
G401, 0.04115 µM	1
G401, 0.1235 µM	0.966
G401, 0.3704 µM	0.868
G401, 1.111 µM	0.552
G401, 3.333 µM	0.044
G401, 10 µM	0.0119
HT1080, 0.00017 µM	1.09
HT1080, 0.00051 µM	1.07
HT1080, 0.00152 µM	1.09
HT1080, 0.00457 µM	1.09
HT1080, 0.01372 µM	1.08
HT1080, 0.04115 µM	1.09
HT1080, 0.1235 µM	1.08
HT1080, 0.3704 µM	1.12
HT1080, 1.111 µM	0.925
HT1080, 3.333 µM	0.169
HT1080, 10 µM	0.101
KHOS-240S, 0.00017 µM	1.05
KHOS-240S, 0.00051 µM	1.08
KHOS-240S, 0.00152 µM	1.08
KHOS-240S, 0.00457 µM	1.08
KHOS-240S, 0.01372 µM	1.09
KHOS-240S, 0.04115 µM	1.06
KHOS-240S, 0.1235 µM	1.06
KHOS-240S, 0.3704 µM	0.985
KHOS-240S, 1.111 µM	0.5636
KHOS-240S, 3.333 µM	0.0954
KHOS-240S, 10 µM	0.108
KHOS-NP, 0.00017 µM	1.09
KHOS-NP, 0.00051 µM	1.12
KHOS-NP, 0.00152 µM	1.107
KHOS-NP, 0.00457 µM	1.11
KHOS-NP, 0.01372 µM	1.125
KHOS-NP, 0.04115 µM	1.117
KHOS-NP, 0.1235 µM	1.116
KHOS-NP, 0.3704 µM	1.112
KHOS-NP, 1.111 µM	0.996
KHOS-NP, 3.333 µM	0.451
KHOS-NP, 10 µM	0.516
RD-ES, 0.00017 µM	1
RD-ES, 0.00051 µM	1.03
RD-ES, 0.00152 µM	1.04
RD-ES, 0.00457 µM	1.01
RD-ES, 0.01372 µM	1.03
RD-ES, 0.04115 µM	1
RD-ES, 0.1235 µM	0.967
RD-ES, 0.3704 µM	0.821
RD-ES, 1.111 µM	0.437
RD-ES, 3.333 µM	0.109
RD-ES, 10 µM	0.165
SK-ES-1, 0.00017 µM	1.07
SK-ES-1, 0.00051 µM	1.06
SK-ES-1, 0.00152 µM	1.06
SK-ES-1, 0.00457 µM	1.02
SK-ES-1, 0.01372 µM	1.07
SK-ES-1, 0.04115 µM	0.989
SK-ES-1, 0.1235 µM	0.945
SK-ES-1, 0.3704 µM	0.593
SK-ES-1, 1.111 µM	0.222
SK-ES-1, 3.333 µM	0.00983
SK-ES-1, 10 µM	0.00643
SW684, 0.00017 µM	1.14
SW684, 0.00051 µM	1.17
SW684, 0.00152 µM	1.15
SW684, 0.00457 µM	1.19
SW684, 0.01372 µM	1.15
SW684, 0.04115 µM	1.11
SW684, 0.1235 µM	0.977
SW684, 0.3704 µM	0.781
SW684, 1.111 µM	0.544
SW684, 3.333 µM	0.189
SW684, 10 µM	0.0544
SW872, 0.00017 µM	1.11
SW872, 0.00051 µM	1.08
SW872, 0.00152 µM	1.08
SW872, 0.00457 µM	1.1
SW872, 0.01372 µM	1.1
SW872, 0.04115 µM	1.06
SW872, 0.1235 µM	1.02
SW872, 0.3704 µM	0.839
SW872, 1.111 µM	0.541
SW872, 3.333 µM	0.131
SW872, 10 µM	0.0932
SW982, 0.00017 µM	1.04
SW982, 0.00051 µM	1.08
SW982, 0.00152 µM	1.12
SW982, 0.00457 µM	1.09
SW982, 0.01372 µM	1.09
SW982, 0.04115 µM	1.11
SW982, 0.1235 µM	0.923
SW982, 0.3704 µM	0.573
SW982, 1.111 µM	0.296
SW982, 3.333 µM	0.157
SW982, 10 µM	0.153
SW1353, 0.00017 µM	1.06
SW1353, 0.00051 µM	1.091
SW1353, 0.00152 µM	1.08
SW1353, 0.00457 µM	1.03
SW1353, 0.01372 µM	1
SW1353, 0.04115 µM	0.981
SW1353, 0.1235 µM	0.966
SW1353, 0.3704 µM	0.882
SW1353, 1.111 µM	0.775
SW1353, 3.333 µM	0.178
SW1353, 10 µM	0.0164
SYO-1, 0.00017 µM	1.01
SYO-1, 0.00051 µM	1.01
SYO-1, 0.00152 µM	0.997
SYO-1, 0.00457 µM	0.985
SYO-1, 0.01372 µM	1.01
SYO-1, 0.04115 µM	0.952
SYO-1, 0.1235 µM	0.932
SYO-1, 0.3704 µM	0.748
SYO-1, 1.111 µM	0.244
SYO-1, 3.333 µM	0.0093
SYO-1, 10 µM	0.00973
